# Test system: KRAS^G12C NSCLC CDX model H358
# Format: in vivo
compound,measurement,setting,value
N.N.[Cl][Pt][Cl] [cisplatin],"Mean Tumor Volume, study day 0","Table 11A, day 0, mg/kg: osimertinib 10, cobimetinib 5, TAK-733 10, palbociclib 20 daily p.o., cetuximab 1, cisplatin 4 per week i.p., 21 days, then 7 days off",164.52 ± 22.82 mm^3
same,"Mean Tumor Volume, study day 3","Table 11A, day 3, mg/kg: osimertinib 10, cobimetinib 5, TAK-733 10, palbociclib 20 daily p.o., cetuximab 1, cisplatin 4 per week i.p., 21 days, then 7 days off",249.59 ± 33.58 mm^3
same,"Mean Tumor Volume, study day 7","Table 11A, day 7, mg/kg: osimertinib 10, cobimetinib 5, TAK-733 10, palbociclib 20 daily p.o., cetuximab 1, cisplatin 4 per week i.p., 21 days, then 7 days off",438.18 ± 93.81 mm^3
same,"Mean Tumor Volume, study day 10","Table 11A, day 10, mg/kg: osimertinib 10, cobimetinib 5, TAK-733 10, palbociclib 20 daily p.o., cetuximab 1, cisplatin 4 per week i.p., 21 days, then 7 days off",489.05 ± 102.01 mm^3
same,"Mean Tumor Volume, study day 14","Table 11A, day 14, mg/kg: osimertinib 10, cobimetinib 5, TAK-733 10, palbociclib 20 daily p.o., cetuximab 1, cisplatin 4 per week i.p., 21 days, then 7 days off",618.71 ± 145.67 mm^3
same,"Mean Tumor Volume, study day 17","Table 11A, day 17, mg/kg: osimertinib 10, cobimetinib 5, TAK-733 10, palbociclib 20 daily p.o., cetuximab 1, cisplatin 4 per week i.p., 21 days, then 7 days off",685.80 ± 180.07 mm^3
same,"Mean Tumor Volume, study day 21","Table 11A, day 21, mg/kg: osimertinib 10, cobimetinib 5, TAK-733 10, palbociclib 20 daily p.o., cetuximab 1, cisplatin 4 per week i.p., 21 days, then 7 days off",828.32 ± 220.11 mm^3
same,"Mean Tumor Volume, study day 24","Table 11A, day 24, mg/kg: osimertinib 10, cobimetinib 5, TAK-733 10, palbociclib 20 daily p.o., cetuximab 1, cisplatin 4 per week i.p., 21 days, then 7 days off",958.50 ± 207.93 mm^3
same,"Mean Tumor Volume, study day 28","Table 11A, day 28, mg/kg: osimertinib 10, cobimetinib 5, TAK-733 10, palbociclib 20 daily p.o., cetuximab 1, cisplatin 4 per week i.p., 21 days, then 7 days off",1079.33 ± 275.10 mm^3
same,Tumor volume (mm^3) day 0,"Table 11C, day 0, doses as Table 11A (TAK-733 10 mg/kg)",164.52 ± 22.82 mm^3
same,Tumor volume (mm^3) day 28,"Table 11C, day 28, doses as Table 11A (TAK-733 10 mg/kg)",1079.33 ± 275.10 mm^3
same,TGI %,"Table 11C, day 28 vs day 0, doses as Table 11A (TAK-733 10 mg/kg)",−10.2%
same,"tumor growth inhibition, in words","Tables 11A and 11C, cisplatin at 4 mg/kg",no effect on inhibiting tumor growth
